This note sets out measurements from ChEMBL document CHEMBL1121859, “Photochemical inactivation of the angiotensin receptor of rabbit aorta by N alpha-(2-nitro-5-azidobenzoyl)-[1-aspartic acid,5-isoleucine]angiotensin II” (1981).

The species named for experiment [1] is Oryctolagus cuniculus. In words: Compound was tested for the inhibition of nitroazidobenzoyl-angiotensin II induced contraction of rabbit aortic strips; pD2 is the negative logarithm of ED50. It is filed as functional, Aorta.
The species entered for experiment [2] is Oryctolagus cuniculus. In words: Compound was tested for the inhibition of nitroazidobenzoyl-angiotensin II induced contraction of rabbit aortic strips. The class given is functional. The conditions noted are these: Aorta, read-out: ED50 (the source's name).

Regarding `CC[C@H](C)[C@H](NC(=O)[C@H](Cc1ccc(O)cc1)NC(=O)[C@@H](NC(=O)[C@H](CCCNC(=N)N)NC(=O)[C@@H](N)CC(=O)O)C(C)C)C(=O)N[C@@H](Cc1cnc[nH]1)C(=O)N1CCC[C@H]1C(=O)N[C@@H](Cc1ccccc1)C(=O)O` [ANGIOTENSIN II], in the experiment listed under Oryctolagus cuniculus [1], the pD2 is 8.44. Further, the EC50 in the experiment listed under Oryctolagus cuniculus [2] was 3.63 nM.

As to `CC[C@H](C)[C@H](NC(=O)[C@H](Cc1ccc(O)cc1)NC(=O)[C@@H](NC(=O)[C@H](CCCN=C(N)N)NC(=O)[C@H](CC(=O)O)NC(=O)c1cc(N=[N+]=[N-])ccc1[N+](=O)[O-])C(C)C)C(=O)N[C@@H](Cc1c[nH]cn1)C(=O)N1CCC[C@H]1C(=O)N[C@@H](Cc1ccccc1)C(=O)O`, the pD2 in the experiment listed under Oryctolagus cuniculus [1] is given as 7.22. In addition, the EC50 in the experiment filed under Oryctolagus cuniculus [2] is 60.4 nM.
